Results on 2 compounds are retold here after ChEMBL document CHEMBL3991601, “The target landscape of clinical kinase drugs” (Science, 2017).

Targets include Midasin (Homo sapiens, UniProt Q9NU22); Aurora kinase B (Homo sapiens, UniProt Q96GD4); TGF-beta receptor type-2 (Homo sapiens, UniProt P37173).
The target in test [1] is Mitogen-activated protein kinase 3 (Homo sapiens, UniProt P27361).
The target of another test is T1, Activin receptor type-1B (Homo sapiens, UniProt P36896).
T1 sequence (P36896 whole entry): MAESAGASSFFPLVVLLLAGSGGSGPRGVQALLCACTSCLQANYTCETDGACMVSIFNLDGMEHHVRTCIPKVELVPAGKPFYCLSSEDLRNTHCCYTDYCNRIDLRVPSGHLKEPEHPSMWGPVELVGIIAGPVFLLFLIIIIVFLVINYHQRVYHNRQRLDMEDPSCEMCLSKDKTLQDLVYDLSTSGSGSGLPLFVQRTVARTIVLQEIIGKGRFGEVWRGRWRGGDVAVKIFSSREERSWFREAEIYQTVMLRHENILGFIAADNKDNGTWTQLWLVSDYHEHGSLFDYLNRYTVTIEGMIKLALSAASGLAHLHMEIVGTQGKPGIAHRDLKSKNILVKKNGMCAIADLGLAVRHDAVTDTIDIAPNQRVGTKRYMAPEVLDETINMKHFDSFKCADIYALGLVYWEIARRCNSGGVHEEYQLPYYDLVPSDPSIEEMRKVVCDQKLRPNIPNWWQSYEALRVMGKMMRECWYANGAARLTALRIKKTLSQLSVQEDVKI

Test [2] addresses Glycogen synthase kinase-3 beta (Homo sapiens, UniProt P49841).
In test [3] the target is cAMP-dependent protein kinase catalytic subunit gamma (Homo sapiens, UniProt P22612).
cAMP-dependent protein kinase catalytic subunit gamma, sequence (P22612 whole entry): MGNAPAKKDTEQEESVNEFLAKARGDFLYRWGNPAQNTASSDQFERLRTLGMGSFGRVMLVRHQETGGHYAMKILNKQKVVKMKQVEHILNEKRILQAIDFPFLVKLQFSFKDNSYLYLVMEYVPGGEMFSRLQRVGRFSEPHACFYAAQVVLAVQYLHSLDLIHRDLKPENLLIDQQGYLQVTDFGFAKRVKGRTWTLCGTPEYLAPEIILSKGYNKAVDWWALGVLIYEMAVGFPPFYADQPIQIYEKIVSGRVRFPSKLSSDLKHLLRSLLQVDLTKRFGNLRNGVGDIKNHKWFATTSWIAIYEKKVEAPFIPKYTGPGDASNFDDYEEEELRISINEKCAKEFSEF
Test [4] has as its target T2, Peroxisomal acyl-coenzyme A oxidase 1 (Homo sapiens, UniProt Q15067).
T2 sequence (Q15067 whole entry): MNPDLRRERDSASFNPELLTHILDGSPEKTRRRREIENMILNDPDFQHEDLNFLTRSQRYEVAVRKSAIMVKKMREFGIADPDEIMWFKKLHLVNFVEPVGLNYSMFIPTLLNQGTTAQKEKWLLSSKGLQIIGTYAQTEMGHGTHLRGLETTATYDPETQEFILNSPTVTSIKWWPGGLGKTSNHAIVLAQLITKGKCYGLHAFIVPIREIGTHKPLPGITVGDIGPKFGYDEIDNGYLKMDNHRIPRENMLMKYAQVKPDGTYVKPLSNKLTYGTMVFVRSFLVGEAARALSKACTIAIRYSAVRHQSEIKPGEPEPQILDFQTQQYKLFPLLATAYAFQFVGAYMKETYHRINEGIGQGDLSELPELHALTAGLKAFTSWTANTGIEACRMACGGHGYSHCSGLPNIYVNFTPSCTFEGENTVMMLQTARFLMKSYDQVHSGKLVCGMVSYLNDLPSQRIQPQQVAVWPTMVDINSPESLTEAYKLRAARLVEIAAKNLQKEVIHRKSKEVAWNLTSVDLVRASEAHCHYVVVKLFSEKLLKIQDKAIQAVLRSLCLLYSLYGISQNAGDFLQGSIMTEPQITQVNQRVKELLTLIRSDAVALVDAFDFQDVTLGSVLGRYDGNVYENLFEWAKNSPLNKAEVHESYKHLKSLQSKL

The target in test [5] is MAP/microtubule affinity-regulating kinase 3 (Homo sapiens, UniProt P27448).
MAP/microtubule affinity-regulating kinase 3, sequence (P27448 whole entry): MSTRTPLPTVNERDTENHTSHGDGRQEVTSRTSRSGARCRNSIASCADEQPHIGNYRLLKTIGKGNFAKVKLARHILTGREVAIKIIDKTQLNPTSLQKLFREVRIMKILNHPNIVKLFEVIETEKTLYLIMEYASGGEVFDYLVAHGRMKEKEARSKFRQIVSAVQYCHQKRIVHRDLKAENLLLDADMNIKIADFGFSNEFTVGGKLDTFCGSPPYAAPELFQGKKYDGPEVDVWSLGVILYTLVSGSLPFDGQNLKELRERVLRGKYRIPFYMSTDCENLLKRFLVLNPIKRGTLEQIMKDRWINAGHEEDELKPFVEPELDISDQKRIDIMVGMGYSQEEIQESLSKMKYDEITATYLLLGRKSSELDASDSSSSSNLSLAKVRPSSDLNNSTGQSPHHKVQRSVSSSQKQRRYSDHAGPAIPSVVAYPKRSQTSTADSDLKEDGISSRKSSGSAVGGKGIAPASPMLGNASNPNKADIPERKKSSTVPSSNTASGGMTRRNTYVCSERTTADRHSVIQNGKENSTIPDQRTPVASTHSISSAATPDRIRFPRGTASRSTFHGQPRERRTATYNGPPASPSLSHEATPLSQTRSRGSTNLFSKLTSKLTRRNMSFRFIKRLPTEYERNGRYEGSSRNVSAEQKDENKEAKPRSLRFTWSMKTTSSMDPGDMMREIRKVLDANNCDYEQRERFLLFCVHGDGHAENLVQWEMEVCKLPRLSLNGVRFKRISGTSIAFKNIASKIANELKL
For test [6], the target named is cAMP-dependent protein kinase catalytic subunit beta (Homo sapiens, UniProt P22694).
Test [7] addresses Tyrosine-protein kinase HCK (Homo sapiens, UniProt P08631).
Test [8] addresses Ribosomal protein S6 kinase alpha-1 (Homo sapiens, UniProt Q15418).
For test [9], the target named is MAP kinase-activated protein kinase 2 (Homo sapiens, UniProt P49137).
MAP kinase-activated protein kinase 2, sequence (P49137 whole entry): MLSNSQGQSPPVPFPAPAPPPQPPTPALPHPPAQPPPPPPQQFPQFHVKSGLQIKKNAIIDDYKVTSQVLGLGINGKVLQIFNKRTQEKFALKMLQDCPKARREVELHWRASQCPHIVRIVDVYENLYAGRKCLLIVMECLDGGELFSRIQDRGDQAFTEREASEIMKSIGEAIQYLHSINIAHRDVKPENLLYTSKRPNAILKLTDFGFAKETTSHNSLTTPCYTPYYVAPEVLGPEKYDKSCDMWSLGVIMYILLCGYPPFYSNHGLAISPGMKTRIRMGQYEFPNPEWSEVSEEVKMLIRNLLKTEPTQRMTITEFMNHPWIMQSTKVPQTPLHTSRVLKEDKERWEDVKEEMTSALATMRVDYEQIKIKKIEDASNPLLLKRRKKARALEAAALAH
The target of the next test is T3, Activin receptor type-1 (Homo sapiens, UniProt Q04771).
T3 sequence (Q04771 whole entry): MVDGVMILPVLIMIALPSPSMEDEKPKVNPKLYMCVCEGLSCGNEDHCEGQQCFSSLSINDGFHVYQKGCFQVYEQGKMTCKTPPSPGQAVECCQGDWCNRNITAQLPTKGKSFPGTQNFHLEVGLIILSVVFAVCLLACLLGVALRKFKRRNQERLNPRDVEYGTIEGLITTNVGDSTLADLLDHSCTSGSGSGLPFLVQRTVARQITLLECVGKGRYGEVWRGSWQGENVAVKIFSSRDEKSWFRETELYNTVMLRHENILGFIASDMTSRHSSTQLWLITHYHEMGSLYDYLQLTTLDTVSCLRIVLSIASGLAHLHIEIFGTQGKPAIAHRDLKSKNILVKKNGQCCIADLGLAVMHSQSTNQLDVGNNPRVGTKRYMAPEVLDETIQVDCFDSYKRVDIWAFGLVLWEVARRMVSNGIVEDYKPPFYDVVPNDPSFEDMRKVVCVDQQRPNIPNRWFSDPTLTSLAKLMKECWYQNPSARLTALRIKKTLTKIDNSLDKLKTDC

The structures appear in SMILES notation. Active and inactive are the calls of the source. For most assays here, no stated cut-off is given here; in the data, actives have a measured Kd and inactives only a lower limit. Where only a bound is given, the exact number is not on record here.

Tyrosine-protein kinase HCK, sequence (P08631 whole entry): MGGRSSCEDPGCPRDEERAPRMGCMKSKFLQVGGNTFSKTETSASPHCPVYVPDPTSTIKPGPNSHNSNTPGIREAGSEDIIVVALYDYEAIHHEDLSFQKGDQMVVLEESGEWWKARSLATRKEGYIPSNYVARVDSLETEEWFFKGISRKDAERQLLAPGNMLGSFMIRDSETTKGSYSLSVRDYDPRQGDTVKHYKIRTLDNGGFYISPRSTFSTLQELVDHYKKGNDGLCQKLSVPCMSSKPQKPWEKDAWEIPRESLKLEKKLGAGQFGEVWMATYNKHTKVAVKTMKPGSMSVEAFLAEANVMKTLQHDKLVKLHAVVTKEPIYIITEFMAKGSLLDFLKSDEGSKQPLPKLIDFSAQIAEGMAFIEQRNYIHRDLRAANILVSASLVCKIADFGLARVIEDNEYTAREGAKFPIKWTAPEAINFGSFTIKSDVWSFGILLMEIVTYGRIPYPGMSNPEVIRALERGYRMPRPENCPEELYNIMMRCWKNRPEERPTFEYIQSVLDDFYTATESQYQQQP
Ribosomal protein S6 kinase alpha-1, sequence (Q15418 whole entry): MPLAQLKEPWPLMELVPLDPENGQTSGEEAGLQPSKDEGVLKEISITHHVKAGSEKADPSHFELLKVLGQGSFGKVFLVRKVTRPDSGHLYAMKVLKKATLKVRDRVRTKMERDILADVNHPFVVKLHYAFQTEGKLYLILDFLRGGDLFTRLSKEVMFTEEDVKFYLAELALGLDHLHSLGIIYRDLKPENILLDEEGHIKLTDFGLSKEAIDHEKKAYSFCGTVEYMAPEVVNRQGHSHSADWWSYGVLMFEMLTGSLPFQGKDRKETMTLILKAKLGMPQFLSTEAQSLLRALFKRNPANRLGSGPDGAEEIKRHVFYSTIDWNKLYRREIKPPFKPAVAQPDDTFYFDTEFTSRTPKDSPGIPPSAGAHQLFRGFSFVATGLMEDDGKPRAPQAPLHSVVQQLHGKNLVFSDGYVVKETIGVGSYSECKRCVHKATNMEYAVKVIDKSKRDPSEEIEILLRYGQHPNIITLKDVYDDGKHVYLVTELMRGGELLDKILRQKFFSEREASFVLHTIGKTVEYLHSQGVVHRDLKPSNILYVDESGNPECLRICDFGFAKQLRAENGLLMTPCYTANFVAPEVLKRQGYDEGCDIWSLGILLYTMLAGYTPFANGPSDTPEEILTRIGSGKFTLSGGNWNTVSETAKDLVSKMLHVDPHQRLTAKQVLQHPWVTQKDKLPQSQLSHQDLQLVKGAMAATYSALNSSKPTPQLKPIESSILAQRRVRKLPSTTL
Mitogen-activated protein kinase 3, sequence (P27361 whole entry): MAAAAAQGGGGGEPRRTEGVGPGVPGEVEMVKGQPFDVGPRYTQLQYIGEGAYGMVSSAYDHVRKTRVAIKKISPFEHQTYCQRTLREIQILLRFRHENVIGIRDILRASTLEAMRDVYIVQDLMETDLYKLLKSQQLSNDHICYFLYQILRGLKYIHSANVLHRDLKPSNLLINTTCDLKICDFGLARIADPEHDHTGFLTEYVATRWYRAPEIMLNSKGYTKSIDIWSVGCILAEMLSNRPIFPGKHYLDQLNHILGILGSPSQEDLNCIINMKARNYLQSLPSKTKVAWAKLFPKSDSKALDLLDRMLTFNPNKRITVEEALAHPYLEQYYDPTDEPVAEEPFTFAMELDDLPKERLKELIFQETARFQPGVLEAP
Aurora kinase B, sequence (Q96GD4 whole entry): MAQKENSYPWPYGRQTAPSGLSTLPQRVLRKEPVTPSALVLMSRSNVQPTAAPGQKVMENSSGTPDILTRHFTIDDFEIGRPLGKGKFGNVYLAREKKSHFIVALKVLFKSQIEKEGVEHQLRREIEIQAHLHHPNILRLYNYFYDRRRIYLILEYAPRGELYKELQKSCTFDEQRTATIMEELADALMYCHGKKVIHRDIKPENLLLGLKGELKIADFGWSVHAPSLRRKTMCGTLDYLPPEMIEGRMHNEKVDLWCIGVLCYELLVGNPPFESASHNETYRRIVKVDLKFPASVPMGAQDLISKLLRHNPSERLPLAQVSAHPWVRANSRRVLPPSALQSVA
Glycogen synthase kinase-3 beta, sequence (P49841 whole entry): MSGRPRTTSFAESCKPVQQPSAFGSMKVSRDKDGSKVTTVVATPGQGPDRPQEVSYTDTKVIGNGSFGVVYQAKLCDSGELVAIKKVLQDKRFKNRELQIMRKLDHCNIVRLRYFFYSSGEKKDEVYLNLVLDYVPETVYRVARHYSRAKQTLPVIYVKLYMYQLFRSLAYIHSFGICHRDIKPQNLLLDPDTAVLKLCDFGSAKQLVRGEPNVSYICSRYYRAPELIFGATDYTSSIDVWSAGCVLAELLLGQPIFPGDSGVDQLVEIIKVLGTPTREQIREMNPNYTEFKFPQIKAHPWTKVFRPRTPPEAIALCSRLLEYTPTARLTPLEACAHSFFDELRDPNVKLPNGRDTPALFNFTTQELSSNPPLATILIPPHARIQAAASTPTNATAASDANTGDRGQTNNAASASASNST
TGF-beta receptor type-2, sequence (P37173 whole entry): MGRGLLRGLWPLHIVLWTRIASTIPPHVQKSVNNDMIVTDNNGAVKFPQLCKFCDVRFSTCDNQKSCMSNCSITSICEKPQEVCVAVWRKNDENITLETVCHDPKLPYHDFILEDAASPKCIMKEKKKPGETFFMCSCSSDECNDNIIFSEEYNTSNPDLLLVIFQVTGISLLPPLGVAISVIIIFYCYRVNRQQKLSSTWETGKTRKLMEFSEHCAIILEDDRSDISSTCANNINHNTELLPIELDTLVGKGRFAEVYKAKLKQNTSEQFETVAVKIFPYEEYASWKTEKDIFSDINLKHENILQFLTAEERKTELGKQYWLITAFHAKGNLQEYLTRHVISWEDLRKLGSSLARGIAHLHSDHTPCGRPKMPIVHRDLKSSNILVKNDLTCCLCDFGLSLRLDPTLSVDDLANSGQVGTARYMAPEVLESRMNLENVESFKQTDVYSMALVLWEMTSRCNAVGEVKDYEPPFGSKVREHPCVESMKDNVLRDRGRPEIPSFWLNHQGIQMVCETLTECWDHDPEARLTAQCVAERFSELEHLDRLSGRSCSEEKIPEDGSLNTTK

For `CN(C)C(=O)c1cc2cnc(Nc3ccc(N4CCNCC4)cn3)nc2n1C1CCCC1` [RIBOCICLIB], the Kd (in test [1]; at Activin receptor type-1B; in test [2]; at Midasin; in test [3]; at Aurora kinase B) was > 30 µM (inactive) throughout. The Kd (in test [4]; in [5]; in test [6]; in test [7]; on TGF-beta receptor type-2; in test [8]) was > 30 µM (inactive) in each case. Further, the Kd (in test [9]; on Activin receptor type-1) was > 30 µM (inactive) throughout.
On to `CC(C)Nc1cc(-c2c[nH]c(C(=O)N[C@H](CO)c3cccc(Cl)c3)c2)c(Cl)cn1` [ULIXERTINIB], for which the dissociation constant (Kd) in [1] was 0.16 µM (active); on Activin receptor type-1B, > 30 µM (inactive); in test [2], > 30 µM (inactive); on Midasin it was > 30 µM (inactive); in test [3], > 30 µM (inactive); at Aurora kinase B it was > 30 µM (inactive). The Kd (in [4]; in test [5]; in [6]; in [7]; on TGF-beta receptor type-2; in [8]) was > 30 µM (inactive) in each case. Further, the Kd (in [9]; on Activin receptor type-1) was > 30 µM (inactive) throughout.

The Kd is the equilibrium constant for the complex coming apart.
